These results are taken from patent US4075409A, “Benzophenone derivatives” (Cassella Farbwerke Mainkur Aktiengesellschaft, priority 1973, dated 1978).

Structures can show the parent of a compound that is named as a salt. Some results are limits rather than exact numbers.

Data set [1] in a line: LD50 mice intraperitoneally. Particulars: mouse, in vivo, ip, benzophenones as hydrochlorides. Here is the method:
(§1) The benzophenone derivatives were tested in the form of their hydrochlorides.

The test system of another data set is albino mice. The data set is described as follows: climbing test, central depressant (sedative) action on albino mice. The data set is classed as in vivo. Particulars: Mus musculus, po, read-out: Central depressant action in % (percentage of animals which no longer embark on the climbing work); for responders at 8 mg/kg: 8.0 mg/kg orally. Here is the method:
The pharmacological examination of the central depressant (sedative) action was carried out on albino mice with the aid of the climbing test described by P. K. KNEIP: Arch. int. pharmacodyn 126, 238 (1960) and R. DOMENJOZ and W. THEOBALD: Arch. int. pharmacodyn 120, 450 (1959).
In the final column of the table, the percentage of the experimental animals which no longer embark on the climbing work, which is normally readily undertaken, is given under the heading "Central depressant action in %".
as §1

`CC(Cc1ccccc1)NCC(=O)N(C)c1ccc([N+](=O)[O-])cc1C(=O)c1ccccc1` (racemic) [DL-2-(5-Phenyl-N-methyl-4-methyl-3-aza-pentanamido)-5-nitrobenzophenone hydrochloride]: the LD50 (usually the dose at which mortality reaches 50%) in data set [1] worked out at 44 mg/kg. For the same compound, in the data set on albino mice (as hydrochloride), the responders at 8 mg/kg was found to be 50%. The matching figures for `CC(Cc1ccccc1)NCC(=O)N(C)c1ccc(Cl)cc1C(=O)c1ccccc1Cl` (racemic) [DL-2-(5-phenyl-N-methyl-4-methyl-3-aza-pentanamido)-2',5-dichlorobenzophenone hydrochloride]: 24 mg/kg and 70%.

The compound `CC(Cc1ccccc1)NCC(=O)N(C)c1ccc(Cl)cc1C(=O)c1ccccc1` (racemic) [DL-2-(5-phenyl-N-methyl-4-methyl-3-aza-pentanamido)-5-chlorobenzophenone hydrochloride] had an LD50 in data set [1] of 240 mg/kg. Moreover, the responders at 8 mg/kg in the data set with albino mice (as hydrochloride) was found to be 40%. For `CCOC(=O)NCC(=O)N(C)c1ccc([N+](=O)[O-])cc1C(=O)c1ccccc1` [2-(3-Ethoxycarbonyl)-N-methyl-3-aza-propanamido)-5-nitro-benzophenone], the LD50 in data set [1] turned out to be 500 mg/kg. Further, the responders at 10 mg/kg in the data set on albino mice (10.0 mg/kg orally, as hydrochloride) stood at 70%. In data set [1], `CCOC(=O)NCC(=O)N(C)c1ccc(Cl)cc1C(=O)c1ccccc1Cl` [2-(3-Ethoxycarbonyl-N-methyl-3-aza-propanamido)-2',5-dichlorobenzophenone] registered an LD50 of 240 mg/kg. Also, the responders at 8 mg/kg in the data set on albino mice (as hydrochloride) was determined as 90%. In data set [1], `CN(CC(=O)Nc1ccc(Cl)cc1C(=O)c1ccccc1)C(=S)Nc1ccccc1` [2-(3-Phenylaminothiocarbonyl-3-aza-3-methyl-propanamido)-5-chlorobenzophenone] gave an LD50 above 1000 mg/kg. Besides, the responders at 8 mg/kg in the data set with albino mice (as hydrochloride) turned out to be 50%.

As to `CCOC(=O)NCC(=O)N(C)c1ccc(Cl)cc1C(=O)c1ccccc1.Cl` [2-(3-ethoxycarbonyl-N-methyl-3-aza-propanamido)-5-chlorobenzophenone hydrochloride], the LD50 in data set [1] is 270 mg/kg. In addition, in the data set on albino mice (4.0 mg/kg orally, as hydrochloride), the responders at 4 mg/kg worked out at 30%. For the compound `CCCCNC(=O)CCN(CCCC)CC(=O)N(C)c1ccc([N+](=O)[O-])cc1C(=O)c1ccccc1` [2-(5-n-Butylaminocarbonyl-N-methyl-3-n-butyl-3-aza-pentanamido)-5-nitro-benzophenone], the LD50 in data set [1] turned out to be 500 mg/kg. Further, the responders at 8 mg/kg in the data set with albino mice (as hydrochloride) was determined as 50%. Regarding `CCCC(C)(COC(N)=O)COC(N)=O` [Meprobamate, reference compound], the responders at 70 mg/kg with albino mice (70 mg/kg orally, comparison preparation) was 50%.
